Measurements as given in patent US20260209277A1, “COMPOUNDS FOR RNA STABILISATION AND DELIVERY” (STICHTING VU, priority 2022, published 2026).
No end group written: not given here.

Key:
miR-21 [1] = assay: Electrophoretic mobility shift assay (EMSA) with miR-21; format: binding; conditions: c(RNA)=3 μM; for dsRNA binding in EMSA (band shift): c(peptide)=6 μM, 15% native PAGE
Excerpt: With the desired peptides in hand, we first assessed their dsRNA-binding potential using an electrophoretic mobility shift assay (EMSA). Making use of non-denaturing conditions, EMSA allows to resolve biomolecular complexes by size and charge character.
WT33 was employed as comparative positive control for peptide binding while the double-stranded microRNA, miR-21, was chosen as a sample dsRNA target for this assay. Comprised of an 18 base pair (bp) duplex, miR-21 can accommodate the binding of two wt33 monomers, similar to siRNA duplexes. Under established EMSA conditions, miR-21 resolves as two bands, a lower band corresponding to both unbound single strands and a higher, more distinct band (ca. 20 bp) corresponding to the miR-21 duplex (FIG. 2a). […] With reference to wt33, the most prominent elevated band (ca. 30 bp) likely corresponds to a 1:1 peptide/dsRNA complex while the upper band may represent a higher order structure. The reduction in ds and ssRNA band intensity is likely a result of these binding events.
Additionally, EMSA experiments were performed where dsRNA was incubated with either peptide 1^∘∘1 or 2^∘∘2 in the presence or absence TCEP. […] Having verified the tuneable, dsRNA-binding abilities of our peptide dimers, their use a cellular siRNA delivery tools was confirmed.
Electrophoretic mobility shift assays (EMSA's) were performed using a Bio-Rad MiniProtean gel system paired with a direct current (DC) power source (PowerPac™ HC, BioRad). Typically, 6 μL solutions containing RNA (concentration=3 μM) and peptide (concentration=6 μM) were incubated for 1 h at RT in a binding buffer (1×TAE and 10% glycerol). For gels monitoring disulfide reduction, peptide/RNA solutions were incubated in increasing concentrations (concentration=6, 60 and 600 μM) of TCEP. After incubation, bound nucleic acid complexes were resolved using 15% and 10% non-denaturing polyacrylamide gels (acrylamide:bis-acrylamide (19:1) in 1×TAE) at 150 V or 120 V in running buffer (1×TAE) at 4° C. for 1.5 hours. […]

miR-21 [2] = assay: Isothermal titration calorimetry (ITC); format: binding; conditions: for N-value (peptides per miR-21 duplex) / −TΔS (entropic penalty) / Kd: 30° C.; for Kd: 1×PBS
Method: To confirm RNA-binding, isothermal titration calorimetry (ITC) was used. […] For wt33 this is in line with applicants' previously reported observations.
Isothermal titration calorimetry (ITC) was conducted using a VP-ITC (MicroCal). Before measurement, annealed miR-21 and peptide samples were dissolved in 1×PBS and degassed using a ThermoVac and heated to 30° C. miR-21 (c=6-15 μM) was then transferred into the sample cell (1.8 mL) and peptides (c=86-305 μM) were transferred into the syringe (300 μL). 37 Injections per measurement were performed at 30° C. (8 μl injection volume, 3.2 s injection time, 180 s spacing, high feedback mode) with an initial delay of 60 s and a stirring speed of 310 rpm. Data were analyzed using the MicroCal LLC ITC software (Origin; OriginLab Corporation), the heat associated with each injection was calculated by integrating the area under the curve for each injection and then normalized to concentration. A ‘single set of identical binding sites’ model was used to fit the binding curves from which thermodynamic binding parameters (ΔG, ΔH, ΔS, N and Kd) were calculated.

miR-21 [3] = assay: Thermal denaturation assay (CD, Tm determination) of miR-21/peptide complexes; format: binding; conditions: for melting temperature (Tm) of miR-21 co-incubated with peptide: equimolar c=2 μM, ellipticity at λ=267 nm, miR-21 alone 51° C.
Excerpt: A thermal denaturation assay was next used to further characterize the dsRNA binding abilities of our peptides. Typically employed in the study of nucleic acid complexes, thermal denaturation assays make use of the spectral changes resulting from complex unfolding as temperature is increased. Using circular dichroism (CD) spectroscopy as a readout, we measured the changes in ellipticity at λ=267 nm, the wavelength maxima associated with A-form dsRNA. In line with previous measurements, the mid-point of denaturation or melting temperature (Tm) associated with miR-21 is 51° C. (FIG. 2b and FIG. 2c). To assess the stability of peptide-dsRNA complexes, peptides were co-incubated with miR-21 at an equimolar concentration (c=2 μM) and measured analogously. […] Contrastingly, incubation with dimeric peptide 1^∘∘1 leads to a greater increase stabilization (Tm=56° C., FIG. 2b) which was also seen for peptide 2 (Tm=58° C., FIG. 2c). […] CD spectroscopy allows not only the measurement of thermal denaturation profiles but can also be used to compare the structural characteristics of biomolecular complexes. […]
Circular dichroism (CD) spectra were recorded with a Jasco J-1500 spectropolarimeter (Jasco) equipped with a programmable Peltier thermostat in a stoppered quartz cuvette (10 mm; Hellma). […] For each sample, 10 CD spectra were measured between 200 nm and 350 nm with continuous scan mode (1 mdeg sensitivity, 1.0 nm resolution, 1.0 nm bandwidth, 2 s integration time, 100 nm/min scan rate). […]
where θ=observed ellipticity/mdeg, c=DNA or RNA strand concentration/mol/L and l=path length/cm. Melting temperature (Tm) determination was conducted with the same instrumentation and sample preparation, where ellipticity (θ=267 nm) was measured by ramping the temperature from 15-90° C. […] Raw data were normalized as described above, and Tm-values were determined using the CDpal program before being plotted in Prism 5.0 (GraphPad).

miR-21 [4] = assay: Stabilization Assay of miR-21 in fetal bovine serum; format: in vitro ADME; conditions: miR-21 9 μM, peptide 18 μM; for stabilizing effect on miR-21 in increasing FBS: 10 min at 37° C., FBS gradient
Method: The rapid degradation of RNA by nucleases in serum is one of the central challenges associated with the therapeutic use of RNA. Applicants were therefore interested whether peptide binding promotes RNA stability in serum. For this purpose, miR-21 was incubated with different concentrations of fetal bovine serum (FBS) at 37° C., followed by phenol/chloroform extraction and PAGE analysis (FIG. 14). […] Both is in line with their reduced affinity for miR-21 (FIGS. 12a and 12b). To investigate the time-dependence of RNA stability, a prolonged incubation of RNA in serum (27.5% FBS) was performed, and the remaining RNA visualized by native PAGE (FIG. 14d). Remarkably, even after 6 hours, miR-21 was still detectable in the presence of peptide 2^∘∘2, while in the absence of the peptide, RNA was fully degraded within 15 minutes in line with afore made observations. These findings highlight the potential of peptide 2^∘∘2 to strongly enhance the stability of dsRNA in serum.
RNA stabilization was investigated by incubation of peptide/RNA complexes with fetal bovine serum (FBS) (Thermo Fischer Scientific). Peptide/RNA complexes were formed as described above after which defined amounts of FBS were added (concentration(RNA)=9 μM, concentration(peptide)=18 μM, total volume 10 μL). For gradient stability assay FBS containing RNA solutions were incubated at 37° C. for 10 min and for time course analysis at room temperature with 27.5% FBS. After incubation, 10 μL of NaOAc (3 M), 1 μL Glycogen (Thermo Fischer Scientific), 1 μL Ribolock (Thermo Fischer Scientific) and ddH2O was added on ice to a total volume of 200 μL.
RNA was extracted twice with freshly prepared solution of phenol/chloroform (5:1, 2 mL). After ethanol precipitation (1 mL) of the aqueous phase RNA pallets were redissolved in 8 μL ddH2O and added 2 μL 6×BB and then loaded into a native PAGE gel and run with previously described conditions.

HEK293 cells = assay: Confocal microscopy of Cy5-siRNA uptake in HEK cells; format: cell-based; conditions: HEK293, Cy5-siRNA 1 μM
Method: For that purpose, a 21 nt long siRNA comprised of a 19 bp stem and equipped with the far-red fluorescent label, cyanine 5 (Cy5) to monitor RNA internalization (Cy5-siRNA, FIG. 7a) was employed. Initially, HEK293 cells were incubated with Cy5-siRNA (c=1 μM, 37° C., 1 h) before being imaged by confocal fluorescence microscopy. […] To assess the tunability of this effect, Cy5-siRNA/1^∘∘1 or Cy5-siRNA/2^∘∘2 complexes were also pre-treated with the reducing agent dithiothreitol (DTT) in order to promote complex disassembly.
HEK cells were seeded at a density of 40000 cells per well on an 8 well micro-slide (Ibidi), one day before the experiment. They were cultured in DMEM (Thermofisher Scientific), supplemented with 10% Fetal Calf Serum (FCS, PAN Biotech) and glutamax (Life technologies). Before starting the experiment, the peptides and Cy5-labelled siRNA were incubated at a peptide/siRNA ratio of 2:1 (6 μM-3 μM) for 1 h. In case for dithiothreitol (DTT) supplemented experiments, DTT was added to a concentration of 20 mM. The samples were diluted to a final siRNA concentration of 1 μM in serum free DMEM. Cells were washed 1× to remove FCS, and incubated in the siRNA:peptide solution for 1 hour at 37° C. After incubation, cells were washed with the phenol-red free DMEM with HEPES, and imaged. […]

RNA hairpins (HP 1-5) = assay: EMSA with RNA hairpins (HP 1-5); format: binding; conditions: HP 1-5 c=1 μM, peptide c=4 μM
Method: The binding of 2^∘∘2 to a set of five ds RNA hairpins, composed of different, complementary 19 base pair stems bridged via a fixed 6 nucleotide loop (FIG. 8a).
Electrophoretic mobility shift assays (EMSA's) were performed using a Bio-Rad MiniProtean gel system paired with a direct current (DC) power source (PowerPac™ HC, BioRad). […] For gels monitoring disulfide reduction, peptide/RNA solutions were incubated in increasing concentrations (concentration=6, 60 and 600 μM) of TCEP. After incubation, bound nucleic acid complexes were resolved using 15% and 10% non-denaturing polyacrylamide gels (acrylamide:bis-acrylamide (19:1) in 1×TAE) at 150 V or 120 V in running buffer (1×TAE) at 4° C. for 1.5 hours. For nucleic acid visualization, gels were stained using 2 μL of SYBR™ gold nucleic acid gel dye (Invitrogen) in 20 mL of 1×TAE buffer for 15 minutes at RT before being imaged using a Bio-Rad ChemiDoc.

Substance	dsRNA binding in EMSA (band shift) (miR-21 [1])	N-value (peptides per miR-21 duplex) (miR-21 [2])	−TΔS (entropic penalty) (miR-21 [2]) [kcal/mol]	Kd (miR-21 [2]) [nM]	melting temperature (Tm) of miR-21 co-incubated with peptide (miR-21 [3]) [°C]	stabilizing effect on miR-21 in increasing FBS (miR-21 [4])	cellular uptake of Cy5-siRNA co-incubated with peptide (fluorescence) (HEK293 cells; 37° C., 1 h, versus Cy5-siRNA alone)	cellular uptake of Cy5-siRNA/peptide complex pre-treated with DTT (HEK293 cells; DTT pre-treatment (20 mM))	EMSA of dsRNA/peptide complex with increasing TCEP (miR-21 [1]; c(ligand)=6 μM, c(TCEP)=6, 60 and 600 μM)	fold higher affinity than wt33 (miR-21 [2]; Kd ratio versus wt33) [fold]	ΔTm, lowering of melting temperature of dsRNA complex by TCEP (miR-21 [3]; excess reducing agent, 1 mM TCEP vs no TCEP) [°C]	binding to RNA hairpins in EMSA (RNA hairpins (HP 1-5))	time miR-21 still detectable in serum in presence of peptide (miR-21 [4]; 27.5% FBS, room temperature, without peptide fully degraded within 15 minutes) [h]
Ac-KKQAQRKRHKLNRKERGHKSPSEQRRSELWHAR (SEQ ID NO 19); 33-amino acid TAV2b RNA-binding peptide without dimerization motif, comparative positive control [wt33, reference compound]	smeared elevated band (ca. 50 bp), corresponding to a 2:1, peptide/dsRNA complex	1.91	9.3	328	58	considerably smaller							
N-terminal disulfide (S-S) homodimer of stapled XβNQKKQAQRKRHKS5NRKS5R (SEQ ID NO 23) [peptide 2^∘∘2]	comparable band is also observed	1.89	5.7	31.7	60	residual RNA levels at 20% FBS to be comparable to those at 1% FBS in the absence of peptide	increase in fluorescence intensity	decrease cellular fluorescence intensities	partial disassembly or unlocking of the dsRNA-peptide complex	10	4	showed binding to each hairpin	≥ 6
